The values below come from patent US9090600B2, “Fungicidal 4-substituted-3-{phenyl[(heterocyclylmethoxy)imino]methyl}-1,2,4-oxadizol-5(4H)-one derivatives” (BAYER INTELLECTUAL PROPERTY GMBH, priority 2011, dated 2015).

Marks after values point to notes of the source that are not given here.

The conditions of the series: pH 2.7.

`Cn1c(/C(=N\OCc2cccc(NC(=O)COc3ccc(Cl)cc3)n2)c2ccccc2)noc1=O` [Example 402]: the LogP was 4.1 [a].
The result for `CCCCOC(=S)Nc1nc(CO/N=C(/c2ccccc2)c2noc(=O)n2C)cs1` [Example 410] reads 4.56 [a]; that for `Cn1c(/C(=N/OCc2cccc(N)n2)c2cccc(F)c2F)noc1=O` [Example 416], 1.26 [a]; that for `Cn1c(/C(=N\OCc2cccc(NC(=O)OC3CCCCC3)n2)c2cccc(F)c2F)noc1=O` [Example 417], 4.46 [a].
The result for `CCCCC(=O)Nc1cccc(CO/N=C(/c2cccc(F)c2F)c2noc(=O)n2C)n1` [Example 420] reads 3.55 [a]; that for `Cn1c(/C(=N\OCc2csc(NC(=O)C3COc4ccccc4O3)n2)c2ccccc2Cl)noc1=O` (stereo not drawn) [Example 442], 3.73 [a]; that for `CCCCCOC(=O)Nc1cccc(CO/N=C(/c2ccccc2F)c2noc(=O)n2C)n1` [Example 444], 4.34 [a].
With `CCCC(C)C(=O)Nc1cccc(CO/N=C(/c2ccccc2F)c2noc(=O)n2C)n1` (stereo not drawn) [Example 449] the figure was 3.73 [a]; with `CC(C)(C)OC(=O)Nc1cccc(CON=C(c2noc(=O)[nH]2)c2cccc(F)c2F)n1` [Example 460], 3.76 [a].
As to `CCCCCC(=O)Nc1cccc(CO/N=C(/c2cccc(F)c2F)c2noc(=O)n2C)n1` [Example 464], the LogP was 3.92 [a].
Turning to `CCCCC(=O)Nc1cccc(CO/N=C(/c2ccccc2F)c2noc(=O)n2C)n1` [Example 480], the LogP is 3.44 [a].
With `CCCCC(=O)Nc1nc(CO/N=C(/c2ccccc2Cl)c2noc(=O)n2C)cs1` [Example 481] the figure was 3.53 [a]; with `CC(Oc1ccccc1)C(=O)Nc1nc(CON=C(c2ccccc2Cl)c2noc(=O)n2C)cs1` (stereo not drawn) [Example 493], 3.81 [a].
With `C#CCCOC(=O)Nc1nc(CON=C(c2ccccc2Cl)c2noc(=O)n2C)cs1` [Example 499], the LogP is 3.19 [a].
Regarding `Cn1c(C(=NOCc2cccc(N)n2)c2cccc(F)c2F)noc1=O` [Example 508], the LogP was 1.34 [a].
`Cn1c(C(=NOCc2cccc(N)n2)c2ccccc2F)noc1=O` [Example 510]: the LogP was 1.23 [a].
As for `CCCCSC(=S)Nc1nc(CON=C(c2ccccc2)c2noc(=O)n2C)cs1` [Example 512], the LogP is 4.81 [a].
With `CCCCCC(=O)Nc1cccc(CO/N=C(/c2ccccc2F)c2noc(=O)n2C)n1` [Example 513] the figure was 3.81 [a].
The result for `CCCCOC(=O)Nc1nc(CO/N=C(/c2ccccc2Cl)c2noc(=O)n2C)cs1` [Example 519] reads 3.85 [a].
Consider `C#CCCOC(=O)Nc1cccc(CO/N=C(/c2ccccc2F)c2noc(=O)n2C)n1` [Example 525], for which the LogP is 3.21 [a].
With `CCCCCOC(=O)Nc1nc(CO/N=C(/c2ccccc2Cl)c2noc(=O)n2C)cs1` [Example 530] the figure was 4.25 [a].
In the case of `CCCCCC(=O)Nc1nc(CO/N=C(/c2ccccc2Cl)c2noc(=O)n2C)cs1` [Example 538], the LogP was 3.89 [a].
With `Cn1c(/C(=N\OCc2csc(NC(=O)SC(C)(C)C)n2)c2ccccc2)noc1=O` [Example 539] the figure was 4.04 [a]; with `Cn1c(/C(=N\OCc2csc(NC(=O)Cc3ccccc3)n2)c2ccccc2Cl)noc1=O` [Example 543], 3.51 [a]; with `CCCCOC(=O)Nc1cccc(CO/N=C(/c2ccccc2F)c2noc(=O)n2C)n1` [Example 552], 3.92 [a].
With `CCCCCCN(C(=O)OC(C)(C)C)c1cccc(CO/N=C(/c2cccc(C)c2)c2noc(=O)n2C)n1` [compound 299] the figure was 6.57 [a]; with `Cn1c(/C(=N\OCc2cccc(NC(=O)OCCCC3CCCC3)n2)c2ccccc2)noc1=O` [compound 408], 5.31 [a]; with `COc1ccccc1COC(=O)Nc1cccc(CO/N=C(/c2ccccc2)c2noc(=O)n2C)n1` [compound 409], 4.06 [a].
`Cn1c(/C(=N\OCc2cccc(NC(=O)OCc3ccncc3)n2)c2ccccc2)noc1=O` [compound 411]: the LogP is 2.01 [a].
The result for `Cn1c(/C(=N\OCc2cccc(NC(=O)OCC3(C)COC3)n2)c2ccccc2)noc1=O` [compound 412] reads 2.96 [a]; that for `Cn1c(/C(=N\OCc2cccc(NC(=O)OCc3ccccc3Cl)n2)c2ccccc2)noc1=O` [compound 413], 4.34 [a].
With `CC#CCOC(=O)Nc1cccc(CO/N=C(/c2ccccc2)c2noc(=O)n2C)n1` [compound 414] the figure was 3.42 [a]; with `CCCCCC#CCOC(=O)Nc1cccc(CO/N=C(/c2ccccc2)c2noc(=O)n2C)n1` [compound 415], 4.86 [a].
With `CCCCC#CCOC(=O)Nc1cccc(CO/N=C(/c2ccccc2)c2noc(=O)n2C)n1` [compound 418] the figure was 4.51 [a]; with `CCCCCCCOC(=O)Nc1cccc(CO/N=C(/c2ccccc2)c2noc(=O)n2C)n1` [compound 419], 5.25 [a]; with `CCOC(=O)Nc1cccc(CO/N=C(/c2ccccc2)c2noc(=O)n2C)n1` [compound 421], 3.21 [a].
`Cn1c(/C(=N\OCc2cccc(NC(=O)OCCC[Si](C)(C)C)n2)c2ccccc2)noc1=O` [compound 422]: the LogP is 5.28 [a].
With `Cn1c(/C(=N\OCc2cccc(NC(=O)OCCC(C)(C)C)n2)c2ccccc2)noc1=O` [compound 423] the figure was 4.68 [a]; with `Cn1c(/C(=N\OCc2cccc(NC(=O)OCC(C)(CO)CCl)n2)c2ccccc2)noc1=O` (stereo not drawn) [compound 424], 3.19 [a].
With `Cc1ccc(OC(=O)Nc2cccc(CO/N=C(/c3ccccc3)c3noc(=O)n3C)n2)cc1` [compound 425], the LogP is 4.03 [a].
Regarding `CCCc1ccccc1OC(=O)Nc1cccc(CO/N=C(/c2ccccc2)c2noc(=O)n2C)n1` [compound 426], the LogP was 4.54 [a].
With `CC(C)OC(=O)Nc1cccc(CO/N=C(/c2ccccc2)c2noc(=O)n2C)n1` [compound 427] the figure was 3.55 [a]; with `Cn1c(/C(=N\OCc2cccc(NC(=O)OCc3c(Cl)cccc3Cl)n2)c2ccccc2)noc1=O` [compound 428], 4.56 [a].
The result for `COC(C)CCOC(=O)Nc1cccc(CO/N=C(/c2ccccc2)c2noc(=O)n2C)n1` (stereo not drawn) [compound 429] reads 3.37 [a]; that for `CCc1ccccc1OC(=O)Nc1cccc(CO/N=C(/c2ccccc2)c2noc(=O)n2C)n1` [compound 430], 4.25 [a].
Turning to `CCOCCCOC(=O)Nc1cccc(CO/N=C(/c2ccccc2)c2noc(=O)n2C)n1` [compound 431], the LogP is 3.44 [a].
The result for `Cn1c(/C(=N\OCc2cccc(NC(=O)OCc3ccc(C#N)cc3)n2)c2ccccc2)noc1=O` [compound 432] reads 3.61 [a]; that for `Cn1c(/C(=N\OCc2cccc(NC(=O)OCC3CCCCO3)n2)c2ccccc2)noc1=O` (stereo not drawn) [compound 433], 3.5 [a].
The result for `Cn1c(/C(=N\OCc2cccc(NC(=O)OCc3cccnc3)n2)c2ccccc2)noc1=O` [compound 434] reads 2.17 [a]; that for `CCc1cccc(OC(=O)Nc2cccc(CO/N=C(/c3ccccc3)c3noc(=O)n3C)n2)c1` [compound 435], 4.34 [a]; that for `C#CCCCOC(=O)Nc1cccc(CO/N=C(/c2ccccc2)c2noc(=O)n2C)n1` [compound 436], 3.51 [a].
Regarding `Cn1c(/C(=N\OCc2cccc(NC(=O)OCc3ccccn3)n2)c2ccccc2)noc1=O` [compound 437], the LogP was 2.64 [a].
With `Cn1c(/C(=N\OCc2cccc(NC(=O)OCCC3CC3)n2)c2ccccc2)noc1=O` [compound 438] the figure was 4.01 [a]; with `CCOCCOCCOC(=O)Nc1cccc(CO/N=C(/c2ccccc2)c2noc(=O)n2C)n1` [compound 439], 3.13 [a].
The result for `Cn1c(/C(=N\OCc2cccc(NC(=O)OC[Si](C)(C)C)n2)c2ccccc2)noc1=O` [compound 440] reads 4.53 [a]; that for `COc1cccc(COC(=O)Nc2cccc(CO/N=C(/c3ccccc3)c3noc(=O)n3C)n2)c1` [compound 441], 3.96 [a]; that for `Cn1c(/C(=N\OCc2cccc(NC(=O)OCC#C[Si](C)(C)C)n2)c2ccccc2)noc1=O` [compound 443], 4.63 [a].
Regarding `Cn1c(/C(=N\OCc2cccc(NC(=O)OC(C)(C)C(Cl)(Cl)Cl)n2)c2ccccc2)noc1=O` [compound 445], the LogP was 4.91 [a].
The result for `CC(=O)CCCOC(=O)Nc1cccc(CO/N=C(/c2ccccc2)c2noc(=O)n2C)n1` [compound 446] reads 2.96 [a]; that for `Cn1c(/C(=N\OCc2cccc(NC(=O)OCCOCCCl)n2)c2ccccc2)noc1=O` [compound 447], 3.29 [a].
As for `CC(C)=CCCOC(=O)Nc1cccc(CO/N=C(/c2ccccc2)c2noc(=O)n2C)n1` [compound 448], the log partition coefficient (LogP) was 4.39 [a].
Regarding `COc1ccc(COC(=O)Nc2cccc(CO/N=C(/c3ccccc3)c3noc(=O)n3C)n2)cc1` [compound 450], the LogP was 3.92 [a].
With `CC(COC(=O)Nc1cccc(CO/N=C(/c2ccccc2)c2noc(=O)n2C)n1)CC(C)(C)C` (stereo not drawn) [compound 451] the figure was 5.39 [a].
With `C=CCC#CCCOC(=O)Nc1cccc(CO/N=C(/c2ccccc2)c2noc(=O)n2C)n1` [compound 452] the figure was 4.01 [a].
With `C=CCCCCOC(=O)Nc1cccc(CO/N=C(/c2ccccc2)c2noc(=O)n2C)n1` [compound 454] the figure was 4.39 [a].
Take `Cn1c(/C(=N\OCc2cccc(NC(=O)OCCOc3ccccc3)n2)c2ccccc2)noc1=O` [compound 456]: the LogP was 3.94 [a].
The result for `COC(C)(C)CCOC(=O)Nc1cccc(CO/N=C(/c2ccccc2)c2noc(=O)n2C)n1` [compound 457] reads 3.59 [a].
With `Cc1cccc(COC(=O)Nc2cccc(CO/N=C(/c3ccccc3)c3noc(=O)n3C)n2)c1` [compound 458] the figure was 4.34 [a].
With `Cn1c(/C(=N\OCc2cccc(NC(=O)OCCBr)n2)c2ccccc2)noc1=O` [compound 459] the figure was 3.42 [a].
